Here are results for two compounds from BindingDB's records for doi:10.1016/j.bmcl.2003.08.015 (The University of Birmingham, 2003).

In this assay the target is T1, 3-oxoacyl-[acyl-carrier-protein] synthase 3 (Mycobacterium tuberculosis (strain ATCC 25618 / H37Rv), UniProt P9WNG3).
T1 sequence (P9WNG3 whole entry): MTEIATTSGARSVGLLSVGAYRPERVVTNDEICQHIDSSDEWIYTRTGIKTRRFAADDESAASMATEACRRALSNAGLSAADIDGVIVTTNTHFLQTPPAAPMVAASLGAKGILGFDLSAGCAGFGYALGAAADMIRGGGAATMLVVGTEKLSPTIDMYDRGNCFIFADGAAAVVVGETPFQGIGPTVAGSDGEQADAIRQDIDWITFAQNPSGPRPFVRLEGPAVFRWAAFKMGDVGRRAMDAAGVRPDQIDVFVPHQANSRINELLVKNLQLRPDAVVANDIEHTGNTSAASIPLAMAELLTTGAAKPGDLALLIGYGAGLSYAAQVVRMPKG
Description: ChEBML_37595. The source says:
In vitro inhibitory activity against the recombinant Mycobacterium tuberculosis Beta-ketoacyl-ACP synthase III mtFabH condensing enzyme.

Structures are written as SMILES.

`Cc1ccc(-c2ccc(CC3(C)SC(=O)C(C)C3=O)cc2)cc1` (configuration not stated) [4-Hydroxy-3,5-dimethyl-5-(4'-methyl-biphenyl-4-ylmethyl)-5H-thiophen-2-one]: the IC50 (as a rule, the concentration needed to halve the response being measured) was determined as 52 µM.

`CC1C(=O)SC(C)(Cc2cccc(Oc3ccccc3)c2)C1=O` (configuration not stated) [4-Hydroxy-3,5-dimethyl-5-(3-phenoxy-benzyl)-5H-thiophen-2-one]: the concentration for half-maximal inhibition (IC50) came to 52 µM.
